What was measured:
[1] = target: T1, Coelenterazine h 2-monooxygenase (Renilla reniformis, UniProt P27652)
T1 sequence (P27652 whole entry): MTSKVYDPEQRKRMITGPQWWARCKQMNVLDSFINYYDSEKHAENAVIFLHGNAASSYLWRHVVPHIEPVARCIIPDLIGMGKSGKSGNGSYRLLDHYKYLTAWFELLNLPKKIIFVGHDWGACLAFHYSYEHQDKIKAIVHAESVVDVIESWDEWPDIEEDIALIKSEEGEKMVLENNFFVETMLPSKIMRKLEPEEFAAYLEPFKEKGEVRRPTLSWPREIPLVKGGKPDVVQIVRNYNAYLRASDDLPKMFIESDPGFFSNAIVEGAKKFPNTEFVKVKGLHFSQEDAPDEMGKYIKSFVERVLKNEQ
Description: GSK_PKIS: Inhibition of Sea Pansy Luciferase (Data from PubChem: AID 652015) [NIH NCATS]

[2] = target: Luciferin 4-monooxygenase (Photinus pyralis, UniProt P08659)
Luciferin 4-monooxygenase, sequence (P08659 whole entry): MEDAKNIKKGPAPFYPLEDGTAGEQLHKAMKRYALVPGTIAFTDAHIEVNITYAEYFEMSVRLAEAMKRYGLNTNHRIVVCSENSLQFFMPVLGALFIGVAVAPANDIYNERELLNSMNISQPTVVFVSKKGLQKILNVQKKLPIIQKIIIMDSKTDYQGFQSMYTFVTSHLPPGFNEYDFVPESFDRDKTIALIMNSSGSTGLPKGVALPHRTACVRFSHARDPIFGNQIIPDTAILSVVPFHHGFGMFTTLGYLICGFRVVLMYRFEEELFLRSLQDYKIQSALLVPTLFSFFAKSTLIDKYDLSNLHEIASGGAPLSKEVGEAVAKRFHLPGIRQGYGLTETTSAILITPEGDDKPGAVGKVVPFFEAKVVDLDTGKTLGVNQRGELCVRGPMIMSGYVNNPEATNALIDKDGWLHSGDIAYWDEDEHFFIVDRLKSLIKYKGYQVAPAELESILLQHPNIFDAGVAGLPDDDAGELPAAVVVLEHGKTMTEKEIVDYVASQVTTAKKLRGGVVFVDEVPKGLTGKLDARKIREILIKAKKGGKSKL
Description: GSK_PKIS: Inhibition of Firefly Luciferase (Data from PubChem: AID 652016) [NIH NCATS]

SMILES	AC50 [1]	AC50 [2]	AC50 ([1]; read-out: AC50) [µM]	AC50 ([2]; read-out: AC50) [µM]
NS(=O)(=O)c1ccc(N/N=C2\C(=O)Nc3ccc(-c4cnco4)cc32)cc1 [GW276655X]	Phenotype: Inactive; Curve_Description: None	Phenotype: Inactive; Curve_Description: None		
C[C@@H](Oc1cc(-n2cnc3ccc(OC4CCN(C)CC4)cc32)sc1C(N)=O)c1ccccc1Cl [GSK-579289A]		Phenotype: Inactive; Curve_Description: None	20.6	
CS(=O)(=O)CCNCc1ccc(-c2ccc3ncnc(Nc4ccc(OCc5ccccc5)c(Br)c4)c3c2)o1.Cl [GW580496A]	Phenotype: Inactive; Curve_Description: None			20.6
O=C(NCC1CC1)c1ccc(-c2cccc(C(=O)NC3CC3)c2)cc1 [GW806776X]			7.3	9.19
Fc1ccc(-c2cc(-c3c[nH]nc3-c3ccccn3)ccn2)cc1 [GW680975X]	Phenotype: Inactive; Curve_Description: None	Phenotype: Inactive; Curve_Description: None		
CCn1c(-c2nonc2N)nc2cncc(C(=O)NCCNC)c21 [GW876790X]	Phenotype: Inactive; Curve_Description: None	Phenotype: Inactive; Curve_Description: None		
COc1ccc(-c2coc3ncnc(N)c23)cc1 [GW642125X]		Phenotype: Inactive; Curve_Description: None	20.6	
NS(=O)(=O)c1ccc(-c2ccc3c(NC(=O)C4CC4)n[nH]c3c2)cc1	Phenotype: Inactive; Curve_Description: None	Phenotype: Inactive; Curve_Description: None		
Cl.NS(=O)(=O)c1ccc(N/N=C2\C(=O)Nc3cccc(CCc4ccncc4)c32)cc1 [GW352430A]	Phenotype: Inactive; Curve_Description: None	Phenotype: Inactive; Curve_Description: None		
Cc1nnc(-c2cccc(-c3ccc(C(=O)NCC4CC4)cc3)c2)o1 [GW734508X]		Phenotype: Inactive; Curve_Description: None	36.6	
COc1ccc(COc2ccc(Cc3cnc(N)nc3N)cc2OC)cc1 [GW632580X]	Phenotype: Inactive; Curve_Description: None	Phenotype: Inactive; Curve_Description: None		
CCOc1ccc2c(-c3ccnc(Nc4cc(OC)cc(C(F)(F)F)c4)n3)cnn2n1 [GW807982X]	Phenotype: Activator; Curve_Description: None			14.6
CS(=O)(=O)CCNCc1ccc(-c2ccc3ncnc(Nc4ccc(OCc5ccccc5)c(C(F)(F)F)c4)c3c2)o1.Cl [GW574782A]	Phenotype: Inactive; Curve_Description: None	Phenotype: Inactive; Curve_Description: None		
COc1cc2ncn(-c3cc(OCCc4ccccc4)c(C(N)=O)s3)c2cc1OC [GSK-204925A]	Phenotype: Inactive; Curve_Description: None	Phenotype: Inactive; Curve_Description: None		
Cl.NS(=O)(=O)c1cccc(Nc2cc(-c3ccc(F)cc3)n[nH]2)c1 [GW824645A]	Phenotype: Inactive; Curve_Description: None			11.6
Cc1ccc2c(-c3ccnc(Nc4ccccc4)n3)c(-c3ccc(F)cc3)nn2n1 [GW833373X]	Phenotype: Inactive; Curve_Description: None	Phenotype: Inactive; Curve_Description: None		
COc1cc(/C=N/Nc2ncnc3[nH]ncc23)ccc1O [GW578748X]	Phenotype: Inactive; Curve_Description: None			3.66

SMILES	AC50 [1]	AC50 [2]	AC50 ([1]; read-out: AC50) [µM]	AC50 ([2]; read-out: AC50) [µM]
Cl.Fc1ccc(-c2nc3n(c2-c2ccncc2)CCS3)cc1	Phenotype: Inactive; Curve_Description: None	Phenotype: Inactive; Curve_Description: None		
COc1cc(Nc2ncc(-c3ccccc3)o2)cc(OC)c1OC [GW627512B]	Phenotype: Inactive; Curve_Description: None	Phenotype: Inactive; Curve_Description: None		
O=C1Nc2ccccc2/C1=C1\CCc2cc(O)ccc21			20.6	5.17
CC(C)=Cc1cccc2c1/C(=N/Nc1ccc(S(N)(=O)=O)cc1)C(=O)N2 [GW396574X]		Phenotype: Inactive; Curve_Description: None	20.6	
COc1cc(Nc2ncc(-c3ccccc3)o2)cc(OC)c1 [GW631581B]	Phenotype: Inactive; Curve_Description: None			6.51
CCc1nccc2c1nc(-c1nonc1N)n2CC	Phenotype: Inactive; Curve_Description: None	Phenotype: Inactive; Curve_Description: None		
COc1ccc2cc(-c3c(-c4ccncc4)nc(-c4ccc(S(C)(=O)=O)cc4C)n3C)ccc2c1	Phenotype: Inactive; Curve_Description: None	Phenotype: Inactive; Curve_Description: None		
COc1cc(N2CCN(C(C)C)CC2)ccc1Nc1nc(Nc2ccc(F)cc2C(N)=O)c2cc[nH]c2n1 [GSK-1220512A]			20.6	25.9
Nc1ncnc2occ(-c3ccc(NC(=O)Nc4cc(C(F)(F)F)cc(C(F)(F)F)c4)cc3)c12 [GW795486X]		Phenotype: Inactive; Curve_Description: None	16.3	
CCn1c(-c2nonc2N)nc2ccc(F)cc21 [GW785404X]	Phenotype: Inactive; Curve_Description: None	Phenotype: Inactive; Curve_Description: None		
Cl.O=C(O[C@H]1CN[C@H](C#Cc2cc3ncnc(Nc4ccc5c(cnn5Cc5ccccc5)c4)c3s2)C1)N1CCOCC1 [GSK-200398A]	Phenotype: Inactive; Curve_Description: None			18.3
CN(C)CCNC(=O)Nc1ccc(N(C)c2ccnc(Nc3ccc(CS(C)(=O)=O)cc3)n2)cc1.Cl [GW830900A]	Phenotype: Inactive; Curve_Description: None			29.1
CC1(C)CC(n2cnc(-c3ccc(F)cc3)c2-c2ccnc(N)n2)CC(C)(C)N1	Phenotype: Inactive; Curve_Description: None			41.1
CCCNc1cccc(-n2ncc3c(N/N=C/c4ccncc4)ncnc32)c1 [GW794607X]	Phenotype: Inactive; Curve_Description: None	Phenotype: Inactive; Curve_Description: None		
CCN1CCC(CC(=O)Nc2n[nH]c3nnc(-c4cccc(F)c4F)cc23)CC1.O=C(O)C(O)C(O)C(=O)O	Phenotype: Inactive; Curve_Description: None			41.1
COC(=O)c1sc(-n2cnc3cc(OC)c(OC)cc32)cc1OCc1ccccc1C(F)(F)F [GSK-1030058A]	Phenotype: Inactive; Curve_Description: None	Phenotype: Inactive; Curve_Description: None		
COC(=O)c1ccc2c(c1)C(=Cc1cc(Br)c(O)c(Br)c1)C(=O)N2 [GW405841X]			13	20.6

— ChEMBL document CHEMBL2303647, “Data associated with the publication PLoS ONE, 8(3), e57888, (2013) PMID: 23505445. Compounds: GSK PKIS; Assays: NIH NCATS”
